# Where two headings read alike, the source gives them in different places.
# Tests used:
# Phakopsora pachyrhizi = experiment: Asian Soybean Rust fungicidal activity (PHAKPA); conditions: Phakopsora pachyrhizi, in Glycine max
# Alternaria solani = experiment: Tomato Early Blight fungicidal activity (ALTESO); format: in vivo; conditions: 24 h, high volume, 1 Day Protectant, read-out: ALTESO % Control rating
# Experimental: All fungicides were evaluated using the aforementioned method for their activity vs. all target diseases, unless stated otherwise. Wheat leaf blotch and brown rust activity were also evaluated using track spray applications, in which case the fungicides were formulated as EC formulations, containing 0.1% Trycol 5941 in the spray solutions. Wheat plants (variety Yuma) were grown from seed in a greenhouse in 50% mineral soil/50% soil-less Metro mix until the first leaf was fully emerged, with 7-10 seedlings per pot. These plants were inoculated with an aqueous spore suspension of Zymoseptoria tritici either prior to or after fungicide treatments. After inoculation the plants were kept in 100% relative humidity (one day in a dark dew chamber followed by two to three days in a lighted dew chamber at 20° C.) to permit spores to germinate and infect the leaf. The plants were then transferred to a greenhouse set at 20° C. for disease to develop. When disease symptoms were fully expressed on the 1st leaves of untreated plants, infection levels were assessed on a scale of 0 to 100 percent disease severity. Percent disease control was calculated using the ratio of disease severity on treated plants relative to untreated plants. Tomato plants (variety Outdoor Girl) were propagated in soil-less Metro mix, with each pot having one plant, and used when 12 to 14 days old. Test plants were inoculated with an aqueous spore suspension of Alternaria solani 24 hr after fungicide treatments. After inoculation the plants were kept in a dew room at 22° C. with 100% relative humidity for 48 hr to permit spores to germinate and infect the leaf. The plants were then transferred to a growth room at 22° C. for disease to develop. Fungicide formulation, application and disease assessment on the sprayed leaves followed the procedures as described in the Example A.
# Venturia inaequalis = experiment: Apple Scab fungicidal activity (VENTIN); format: in vivo; conditions: 24 h, high volume, 1 Day Protectant, read-out: VENTIN % Control rating
# Experimental: All fungicides were evaluated using the aforementioned method for their activity vs. all target diseases, unless stated otherwise. Wheat leaf blotch and brown rust activity were also evaluated using track spray applications, in which case the fungicides were formulated as EC formulations, containing 0.1% Trycol 5941 in the spray solutions. Wheat plants (variety Yuma) were grown from seed in a greenhouse in 50% mineral soil/50% soil-less Metro mix until the first leaf was fully emerged, with 7-10 seedlings per pot. These plants were inoculated with an aqueous spore suspension of Zymoseptoria tritici either prior to or after fungicide treatments. After inoculation the plants were kept in 100% relative humidity (one day in a dark dew chamber followed by two to three days in a lighted dew chamber at 20° C.) to permit spores to germinate and infect the leaf. The plants were then transferred to a greenhouse set at 20° C. for disease to develop. When disease symptoms were fully expressed on the 1st leaves of untreated plants, infection levels were assessed on a scale of 0 to 100 percent disease severity. Percent disease control was calculated using the ratio of disease severity on treated plants relative to untreated plants. […] Seedlings with two expanding young leaves at the top (older leaves at bottom of the plants were trimmed) were used in the test. Plants were inoculated with a spore suspension of Venturia inaequalis 24 hr after fungicide treatment and kept in a 22° C. dew chamber with 100% relative humidity for 48 hr, and then moved to a greenhouse set at 20° C. for disease to develop. Fungicide formulation, application and disease assessment on the sprayed leaves followed the procedures as described in the Example A.
# Puccinia triticina = experiment: Wheat Brown Rust fungicidal activity (PUCCRT); format: in vivo; conditions: Low Volume Cereal Activity at 121.5 g/Ha
# Cercospora beticola = experiment: Leaf Spot of Sugar Beets fungicidal activity (CERCBE); format: in vivo; conditions: 24 h, sugar beet, high volume, 1 Day Protectant, read-out: CERCBE % Control rating
# Experimental: All fungicides were evaluated using the aforementioned method for their activity vs. all target diseases, unless stated otherwise. Wheat leaf blotch and brown rust activity were also evaluated using track spray applications, in which case the fungicides were formulated as EC formulations, containing 0.1% Trycol 5941 in the spray solutions. Wheat plants (variety Yuma) were grown from seed in a greenhouse in 50% mineral soil/50% soil-less Metro mix until the first leaf was fully emerged, with 7-10 seedlings per pot. These plants were inoculated with an aqueous spore suspension of Zymoseptoria tritici either prior to or after fungicide treatments. After inoculation the plants were kept in 100% relative humidity (one day in a dark dew chamber followed by two to three days in a lighted dew chamber at 20° C.) to permit spores to germinate and infect the leaf. The plants were then transferred to a greenhouse set at 20° C. for disease to develop. When disease symptoms were fully expressed on the 1st leaves of untreated plants, infection levels were assessed on a scale of 0 to 100 percent disease severity. Percent disease control was calculated using the ratio of disease severity on treated plants relative to untreated plants. Sugar beet plants (variety HH88) were grown in soil-less Metro mix and trimmed regularly to maintain a uniform plant size prior to test. Plants were inoculated with a spore suspension 24 hr after fungicide treatments. Inoculated plants were kept in a dew chamber at 22° C. for 48 hr then incubated in a greenhouse set at 24° C. under a clear plastic hood with bottom ventilation until disease symptoms were fully expressed. Fungicide formulation, application and disease assessment on the sprayed leaves followed the procedures as described in the Example A.
# Zymoseptoria tritici = experiment: Leaf Blotch of Wheat fungicidal activity (SEPTTR); format: in vivo; conditions: Low Volume Cereal Activity at 121.5 g/Ha
# [1] = 24 h, read-out: PHAKPA 1DP % Control rating, soybean, high volume, 25 ppm, 1 Day Protectant
# [2] = 72 h, read-out: PHAKPA 3DC % Control rating, soybean, high volume, 25 ppm, 3 Day Curative
# [3] = 24 h, 1 Day Protectant, read-out: PUCCRT 1DP (Wheat Brown Rust, 1 Day Protectant)
# [4] = 72 h, 3 Day Curative, read-out: PUCCRT 3DC (Wheat Brown Rust, 3 Day Curative)
# [5] = 24 h, 1 Day Protectant, read-out: SEPTTR 1DP (Wheat Leaf Blotch, 1 Day Protectant)
# [6] = 72 h, 3 Day Curative, read-out: SEPTTR 3DC (Wheat Leaf Blotch, 3 Day Curative)
Structure (SMILES),pest or weed control at 25 ppm (Phakopsora pachyrhizi; [1]),pest or weed control at 25 ppm (Phakopsora pachyrhizi; [2]),pest or weed control at 100 ppm (Alternaria solani),pest or weed control at 100 ppm (Venturia inaequalis),pest or weed control at 121.5 g/ha (Puccinia triticina; [3]),pest or weed control at 121.5 g/ha (Puccinia triticina; [4]),pest or weed control at 100 ppm (Cercospora beticola),pest or weed control at 121.5 g/ha (Zymoseptoria tritici; [5]),pest or weed control at 121.5 g/ha (Zymoseptoria tritici; [6])
COc1ccnc(C(=O)N[C@@H](C)C(=O)O[C@H](C)[C@@H](Oc2ccccc2)c2ccccc2)c1OCOC(C)=O [Example 185],< 80%,< 0%,< 80%,< 80%,> 80%,> 80%,< 80%,> 80%,> 80%
COc1ccnc(C(=O)N[C@H](C)C(=O)O[C@H](C)[C@@H](Oc2ccccc2)c2ccccc2)c1OCOC(C)=O [Example 186],< 0%,< 0%,< 80%,< 80%,< 0%,< 0%,< 80%,< 80%,< 80%
COc1ccnc(C(=O)N[C@@H](C)C(=O)O[C@@H](C)[C@H](OCC(C)C)c2ccccc2)c1OC(C)=O [Example 225],> 80%,< 80%,,,> 80%,> 80%,,< 80%,> 80%
COc1ccnc(C(=O)N[C@@H](C)C(=O)O[C@@H](C)[C@H](Oc2ccccc2)c2ccc(F)cc2OC(C)=O)c1OC(C)=O [Example 267],< 80%,< 80%,,,< 80%,< 0%,,> 80%,< 80%
COc1cc(F)ccc1[C@H](OC1CC1)[C@H](C)OC(=O)[C@H](C)NC(=O)c1nccc(OC)c1OC(C)=O [Example 298],> 80%,< 80%,,,< 80%,> 80%,,< 80%,< 0%
COc1cc(F)ccc1[C@@H](Oc1ccc(C)cc1)[C@H](C)OC(=O)[C@H](C)NC(=O)c1nccc(OC)c1OC(C)=O [Example 271],< 80%,< 80%,,,> 80%,< 0%,,> 80%,> 80%
COc1cc(F)ccc1[C@@H](OC(=O)C1CC1)[C@H](C)OC(=O)[C@H](C)NC(=O)c1nccc(OC)c1OC(C)=O [Example 297],< 80%,< 80%,,,< 0%,< 0%,,< 0%,< 80%
COc1ccnc(C(=O)N[C@@H](C)C(=O)O[C@@H](C)[C@H](Oc2ccccc2)c2ccc(F)cc2)c1OC(C)=O [Example 242],> 80%,< 80%,,,> 80%,> 80%,,> 80%,> 80%
COc1ccnc(C(=O)N[C@@H](C)C(=O)O[C@@H](C)[C@H](Oc2ccccc2)c2ccc(F)cc2)c1OCOC(C)=O [Example 241],> 80%,< 0%,,,> 80%,> 80%,,> 80%,> 80%
CCCO[C@H](c1ccccc1)[C@H](C)OC(=O)[C@H](C)NC(=O)c1nccc(OC)c1OC(C)=O [Example 228],> 80%,< 0%,,,> 80%,> 80%,,< 80%,> 80%
COc1ccnc(C(=O)N[C@@H](C)C(=O)O[C@@H](C)[C@H](Oc2ccccc2)c2cccc3ccccc23)c1OCOC(C)=O [Example 262],> 80%,< 0%,,,> 80%,> 80%,,> 80%,> 80%
